Results: patent US9868736B2, “Deubiquitinase inhibitors and methods for use of the same” (THE REGENTS OF THE UNIVERSITY OF MICHIGAN, priority 2013, dated 2018)
Values after ≈ are worked out from the molar mass of the structure shown. Like-named read-outs stand apart in the source and are kept apart here.

How the values were obtained:
[1] = biological target: T1, catalytic domain of Usp9x (Usp9xCD) (Homo sapiens, UniProt Q93008); assay: Usp9xCD Ub-AMC enzyme assay; format: biochemical; settings: 300 nM Usp9xCD, 30 min at 37° C. with inhibitor, 1.5 μM Ub-AMC
T1 construct: DNA corresponding to amino acids 1553-1960 of human Usp9x; His6-Smt3 (SUMO) fusion tag, ULP1-cleavable (N, cleaved yes); made in house; host or cells: E. coli
T1 sequence (Q93008 1553-1960): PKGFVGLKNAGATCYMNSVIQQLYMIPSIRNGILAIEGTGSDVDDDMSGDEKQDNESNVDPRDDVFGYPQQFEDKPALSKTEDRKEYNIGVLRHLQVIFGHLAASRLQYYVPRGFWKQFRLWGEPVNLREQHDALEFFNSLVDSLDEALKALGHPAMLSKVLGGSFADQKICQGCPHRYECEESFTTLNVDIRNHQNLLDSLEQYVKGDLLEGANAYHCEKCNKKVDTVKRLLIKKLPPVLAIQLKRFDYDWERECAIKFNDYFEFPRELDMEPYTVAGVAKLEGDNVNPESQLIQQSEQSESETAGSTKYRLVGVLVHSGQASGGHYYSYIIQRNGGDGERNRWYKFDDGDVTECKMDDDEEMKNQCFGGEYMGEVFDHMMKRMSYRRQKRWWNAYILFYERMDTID
Experimental: A series of chemical modifications were initiated to increase our structure activity relationship (SAR) analysis of inhibitors. […] The DNA was cloned into a ULP1-protease cleavable N-terminal His6-Smt3-fusion tag expression vector, derived from pET-28. Protein expression was induced at OD600 2.0, in TB media with Kanamycin overnight at 16° C. Cells were harvested and flash frozen before use. […] Protein was concentrated to roughly 20-40 mg/ml before aliquots were flash-frozen. All steps were performed in the presence of reducing agents, either BME, DTT, or TCEP.
Purified recombinant enzyme in buffer containing 2 mM DTT was buffer exchanged into 25 mM Tris-HCl, 50 mM NaCl and 1 mg/ml BSA using a spin column. […] IC50 values were estimated by integrating the slope of each reaction using GraphPad 6.
Two hundred and ten (210) novel chemical structures were screened for Usp9xCD inhibitory activity using this assay. […] Fluorescent scans were used to assess Usp9xCD inhibitory activity in this enzyme assay for all compounds of interest. Each assay was performed in duplicate and the linear region of each reaction curve was used to calculate IC50 values for Usp9xCD inhibition which are tabulated in Table 1.

Mcl-1, PARP = assay: Mcl-1 level and PARP cleavage in treated tumor cells; format: cell-based; settings: Z138 lymphoma cells, 1.25, 2.5 and 5 μM, 4 hours
aqueous solubility = format: physicochemical
[2] = background statement; cited from earlier work
Usp9x = Usp9x (Homo sapiens, UniProt Q93008); assay: DUB activity (HA-Ub vinyl-sulfone labelling) in lysates of treated intact cells; format: cell-based; set-up: endogenous in cells; host or cells: Z138 lymphoma, MM1.S/MM1.ST myeloma, primary PCL cells, A375 and vemurafenib-resistant A375 melanoma; settings: Z138 lymphoma cells, 1.25, 2.5 and 5 μM, 4 hours
Usp9x, sequence (Q93008 whole entry): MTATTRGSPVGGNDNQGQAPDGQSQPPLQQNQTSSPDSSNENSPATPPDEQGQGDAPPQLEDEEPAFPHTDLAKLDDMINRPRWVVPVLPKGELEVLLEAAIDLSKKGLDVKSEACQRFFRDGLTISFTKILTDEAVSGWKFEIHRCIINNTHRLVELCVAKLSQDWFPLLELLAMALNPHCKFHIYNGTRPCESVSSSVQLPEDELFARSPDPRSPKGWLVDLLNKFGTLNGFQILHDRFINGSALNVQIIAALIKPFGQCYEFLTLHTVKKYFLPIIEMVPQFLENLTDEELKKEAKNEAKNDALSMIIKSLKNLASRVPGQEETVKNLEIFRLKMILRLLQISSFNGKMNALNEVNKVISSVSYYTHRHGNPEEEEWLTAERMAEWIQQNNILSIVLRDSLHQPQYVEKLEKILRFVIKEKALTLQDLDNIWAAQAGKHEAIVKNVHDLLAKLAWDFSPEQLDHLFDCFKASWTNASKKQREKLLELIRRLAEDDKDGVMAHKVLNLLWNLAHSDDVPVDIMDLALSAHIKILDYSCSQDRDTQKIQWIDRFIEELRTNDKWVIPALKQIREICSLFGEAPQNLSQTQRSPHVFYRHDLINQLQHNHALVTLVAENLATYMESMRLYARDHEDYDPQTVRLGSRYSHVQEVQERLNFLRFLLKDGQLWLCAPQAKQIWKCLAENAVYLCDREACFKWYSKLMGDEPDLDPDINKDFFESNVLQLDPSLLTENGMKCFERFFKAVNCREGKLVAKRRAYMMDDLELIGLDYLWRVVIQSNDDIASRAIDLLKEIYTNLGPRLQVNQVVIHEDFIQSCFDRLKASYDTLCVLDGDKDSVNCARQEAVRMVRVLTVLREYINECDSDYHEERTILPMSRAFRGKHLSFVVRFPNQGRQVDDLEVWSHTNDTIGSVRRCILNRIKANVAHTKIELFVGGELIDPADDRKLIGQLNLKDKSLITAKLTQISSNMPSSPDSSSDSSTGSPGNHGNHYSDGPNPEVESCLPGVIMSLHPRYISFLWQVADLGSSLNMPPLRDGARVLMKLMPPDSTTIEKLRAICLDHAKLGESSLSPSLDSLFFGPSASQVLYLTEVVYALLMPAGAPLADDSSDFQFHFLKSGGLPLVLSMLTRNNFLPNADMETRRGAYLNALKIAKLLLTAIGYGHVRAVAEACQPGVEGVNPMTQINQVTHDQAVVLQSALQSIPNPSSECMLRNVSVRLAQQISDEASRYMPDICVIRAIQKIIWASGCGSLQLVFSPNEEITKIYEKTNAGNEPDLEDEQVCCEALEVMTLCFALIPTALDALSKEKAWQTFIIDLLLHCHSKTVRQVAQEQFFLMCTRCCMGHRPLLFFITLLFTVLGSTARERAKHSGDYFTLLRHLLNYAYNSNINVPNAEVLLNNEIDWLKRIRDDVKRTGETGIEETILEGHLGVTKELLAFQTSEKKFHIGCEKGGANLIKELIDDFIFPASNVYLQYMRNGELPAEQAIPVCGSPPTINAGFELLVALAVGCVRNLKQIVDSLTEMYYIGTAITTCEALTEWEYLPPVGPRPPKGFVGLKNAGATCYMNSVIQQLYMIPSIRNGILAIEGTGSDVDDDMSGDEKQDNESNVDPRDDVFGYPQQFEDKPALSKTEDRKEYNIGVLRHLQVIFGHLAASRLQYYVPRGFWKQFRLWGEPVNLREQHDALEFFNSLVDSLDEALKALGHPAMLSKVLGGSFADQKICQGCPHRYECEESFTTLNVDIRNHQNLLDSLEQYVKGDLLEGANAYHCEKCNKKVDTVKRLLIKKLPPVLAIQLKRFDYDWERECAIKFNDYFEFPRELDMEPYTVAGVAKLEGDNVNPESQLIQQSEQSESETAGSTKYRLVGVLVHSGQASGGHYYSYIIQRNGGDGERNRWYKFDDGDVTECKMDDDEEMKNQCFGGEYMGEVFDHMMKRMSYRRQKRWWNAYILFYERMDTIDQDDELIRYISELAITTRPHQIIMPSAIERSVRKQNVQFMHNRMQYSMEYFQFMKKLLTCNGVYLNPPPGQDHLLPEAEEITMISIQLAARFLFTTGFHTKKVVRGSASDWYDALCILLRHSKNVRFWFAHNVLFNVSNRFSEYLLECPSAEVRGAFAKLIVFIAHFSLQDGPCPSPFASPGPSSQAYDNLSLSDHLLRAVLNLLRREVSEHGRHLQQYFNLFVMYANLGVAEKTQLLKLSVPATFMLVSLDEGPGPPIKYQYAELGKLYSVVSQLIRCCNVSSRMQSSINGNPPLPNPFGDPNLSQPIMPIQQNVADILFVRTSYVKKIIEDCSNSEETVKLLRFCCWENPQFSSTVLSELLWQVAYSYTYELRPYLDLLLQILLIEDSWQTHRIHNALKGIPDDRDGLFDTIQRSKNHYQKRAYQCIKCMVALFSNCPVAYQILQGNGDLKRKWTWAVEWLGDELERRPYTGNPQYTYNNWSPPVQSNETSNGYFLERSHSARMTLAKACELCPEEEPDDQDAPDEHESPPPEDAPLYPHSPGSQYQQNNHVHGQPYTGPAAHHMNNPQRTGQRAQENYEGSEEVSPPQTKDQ
Experimental: In brief, control and treated cells were lysed by sonication in DUB assay buffer [50 mM Tris-HCl (pH 7.5), 5 mM MgCl2, 250 mM sucrose, 1 mM PMSF, 1× Roche proteinase inhibitory cocktail] and 20 μg of protein from the supernatant fraction (after a 14,000×g spin) were incubated with 200 nM HA-Ub vinyl-sulfone (Boston Biochem) in a final volume of 20 μl. After 90 min at 37° C., reactions were stopped with the addition of 5×-sample buffer. DUB activity was detected by SDS-PAGE resolution of the protein followed by nitrocellulose membrane transfer and immunoblotting with anti-HA.
The time required for G9-mediated Usp9x inhibition in intact multiple myeloma (MM1.S) cells and primary tumor cells from a patient with plasma cell leukemia (PCL) was investigated. MM1.ST (FIG. 1, left) or PCL (FIG. 1, right) cells were treated with 5 μM of compound for the time indicated before Usp9x activity was assessed as described above.

[3] = system: vemurafenib sensitive and resistant A375 melanoma cells; assay: in vitro anti-tumor efficacy in A375 melanoma cells; format: cell-based; settings: A375 cells, Usp5 knockdown
Text: Similar results were obtained in A375R Usp5 KD cells treated with a MEK inhibitor.

solubility (aqueous solubility) [µM] | reduction of the vemurafenib IC50 concentration by Usp5 KD [3] | Compound | IC50 [1] [µM] | level of Mcl-1 (Mcl-1, PARP) | solubility [2] | Usp9x activity in intact cells (Usp9x)
2.6 (≈ 0.999 µg/mL) |  | CCC[C@H](NC(=O)/C(C#N)=C/c1cccc(Br)n1)c1ccccc1 [WP1130, reference compound] | 4.8 | reduce the level of a downstream target of Usp9x | poor solubility | able to inhibit Usp9x activity in intact cells
 |  | CCCC(NC(=O)/C(C#N)=C/c1nc(Cl)ccc1Cl)c1ccc(OCCN2CCOCC2)cc1 (stereo not shown) [drawing 26] | 1.6 |  |  | 
 | about 2 fold | CCCS(=O)(=O)Nc1ccc(F)c(C(=O)c2c[nH]c3ncc(-c4ccc(Cl)cc4)cc23)c1F [vemurafenib, reference compound] |  |  |  | 
